Consider 26 molecules from US7122545B2, “Imidazo-benzothiazoles” (Hoffmann-La Roche Inc., priority 2003, dated 2006).

The target of data set [1] is T1, human adenosine A2A receptor (Homo sapiens, UniProt P29274).
T1 construct: expressed in transfected cells; host or cells: CHO cells, semliki forest virus expression system; membrane preparation
In words: Human adenosine A2A receptor [3H]-SCH-58261 binding assay (SPA). Particulars: recombinant receptor in CHO cell membranes; [3H]-SCH-58261 1 nM; Ki by Cheng-Prussoff; read-out: hA2 (pKi) (converted). As for the experimental part: Human Adenosine A2A Receptor
(§1) The human adenosine A2A receptor was recombinantly expressed in Chinese hamster ovary (CHO) cells using the semliki forest virus expression system. Cells were harvested, washed twice by centrifugation, homogenized and again washed by centrifugation. The final washed membrane pellet was suspended in a Tris (50 mM) buffer containing 120 mM NaCl, 5 mM KCl, 2 mM CaCl2 and 10 mM MgCl2 (pH 7.4) (buffer A). The [^3H]-SCH-58261 (Dionisotti et al., 1997, Br J Pharmacol 121, 353; 1 nM) binding assay was carried out in 96-well plates in the presence of 2.5 μg of membrane protein, 0.5 mg of Ysi-poly-1-lysine SPA beads and 0.1 U adenosine deaminase in a final volume of 200 μl of buffer A. Non-specific binding was defined using xanthine amine congener (XAC; 2 μM). Compounds were tested at 10 concentrations from 10 μM-0.3 nM. All assays were conducted in duplic and repeated at least two times. Assay plates were incubated for hour at room temperature before centrifugation and then bound ligand determined using a Packard Topcount scintillation counter. IC50 values were calculated using a non-linear curve fitting program and Ki values calculated using the Cheng-Prussoff equation.

Data set [2] addresses T2, human adenosine A1 receptor (Homo sapiens, UniProt P30542).
T2 construct: expressed in transfected cells; host or cells: CHO cells, semliki forest virus expression system; membrane preparation
T2 sequence (P30542 1-326): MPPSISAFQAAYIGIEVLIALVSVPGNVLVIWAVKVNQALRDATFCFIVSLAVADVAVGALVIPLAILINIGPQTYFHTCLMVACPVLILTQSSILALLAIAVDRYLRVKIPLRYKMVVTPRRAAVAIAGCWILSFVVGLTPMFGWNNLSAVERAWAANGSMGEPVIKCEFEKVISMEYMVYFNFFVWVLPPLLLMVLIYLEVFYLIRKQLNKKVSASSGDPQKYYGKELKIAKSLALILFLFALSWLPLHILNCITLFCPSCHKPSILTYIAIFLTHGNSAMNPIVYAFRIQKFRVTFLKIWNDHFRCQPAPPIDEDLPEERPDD
In words: Human adenosine A1 receptor [3H]-DPCPX binding assay (SPA). Particulars: recombinant receptor in CHO cell membranes; [3H]-DPCPX 0.6 nM; Ki by Cheng-Prussoff; read-out: hA1 (pKi) (converted). As for the experimental part:
Human Adenosine A1 receptor
as §1, with “human adenosine A1 receptor was” for “human adenosine A2A receptor was”, “A). The [^3H]-DPCPX (([propyl-^3H]8-cyclopentyl-1,3-dipropyxanthine); 0.6 nM) binding” for “A). The [^3H]-SCH-58261 (Dionisotti et al., 1997, Br J Pharmacol 121, 353; 1 nM) binding”, “from 10 μM–0.3 nM. All” for “from 10 μM-0.3 nM. All”, “conducted in duplicate and repeated” for “conducted in duplic and repeated”, “incubated for 1 hour at” for “incubated for hour at”

Counter-ions that a name gives are not always drawn.

T1 sequence (P29274 whole entry): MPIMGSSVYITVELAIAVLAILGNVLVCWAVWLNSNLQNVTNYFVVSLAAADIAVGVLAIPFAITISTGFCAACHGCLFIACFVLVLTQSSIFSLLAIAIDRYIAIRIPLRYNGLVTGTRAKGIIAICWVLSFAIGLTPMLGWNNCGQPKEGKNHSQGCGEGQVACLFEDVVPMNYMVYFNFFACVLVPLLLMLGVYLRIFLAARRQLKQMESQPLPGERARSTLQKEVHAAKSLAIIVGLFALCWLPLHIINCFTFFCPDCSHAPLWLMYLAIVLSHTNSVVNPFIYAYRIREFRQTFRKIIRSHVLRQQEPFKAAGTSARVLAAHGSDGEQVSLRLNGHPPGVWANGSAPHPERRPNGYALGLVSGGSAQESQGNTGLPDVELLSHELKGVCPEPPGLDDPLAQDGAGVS

For `COc1ccc(N2CCOCC2)c2sc(-c3nc4c([nH]3)CCN(CC(N)=O)CC4)nc12` [Example 46, 2-[2-(4-Methoxy-7-morpholin-4-yl-benzothiazol-2-yl)-4,5,7,8-tetrahydro-1H-imidazo[4,5-d]azepin-6-yl]-acetamide], the melting point was in the range of 299 to 302 °C.

Consider `COc1ccc(N2CCOCC2)c2sc(-c3nc4c([nH]3)CCN(C(=O)c3ccc(F)cc3)CC4)nc12` [Example 26, (4-Fluoro-phenyl)-[2-(4-methoxy-7-morpholin-4-yl-benzothiazol-2-yl)-4,5,7,8-tetrahydro-1H-imidazo[4,5-d]azepin-6-yl]-methanone], for which the melting point lay in the range of 205 to 207 °C. In addition, the Ki in data set [1] is 1 nM. For the same molecule, in data set [2], the Ki is 631 nM.

Turning to `COc1ccc(N2CCOCC2)c2sc(-c3nc4c([nH]3)CCN(C(=O)OC(C)(C)C)CC4)nc12` [Example 24, 2-(4-Methoxy-7-morpholin-4-yl-benzothiazol-2-yl)-4,5,7,8-tetrahydro-1H-imidazo[4,5-d]azepine-6-carboxylic acid tert-butyl ester], the melting point lay within 142 to 144 °C.

`COc1ccc(N2CCOCC2)c2sc(-c3nc4c([nH]3)CCN(C(C)=O)C4)nc12` [Example 39, 1-[2-(4-Methoxy-7-morpholin-4-yl-benzothiazol-2-yl)-1,4,6,7-tetrahydro-imidazo[4,5-c]pyridin-5-yl]-ethanone] returned a melting point of 155 to 157 °C.

`COc1ccc(N2CCOCC2)c2sc(-c3nc4c([nH]3)CCN(C(=O)c3ccccc3C)CC4)nc12` [Example 28, [2-(4-Methoxy-7-morpholin-4-yl-benzothiazol-2-yl)-4,5,7,8-tetrahydro-1H-imidazo[4,5-d]azepin-6-yl]-o-tolyl-methanone] gave a melting point of 194 to 196 °C. For the same molecule, the Ki in data set [1] is 1.26 nM. Also, the Ki in data set [2] is 1580 nM.

In turn, `COc1ccc(-c2ccccc2)c2sc(-c3ncc[nH]3)nc12` [Example 4, 2-(1H-Imidazol-2-yl)-4-methoxy-7-phenyl-benzothiazole] registered a melting point of 205 to 206 °C. Also, the Ki in data set [1] was 5.01 nM. The Ki in data set [2] is 200 nM.

`COc1ccc(N2CCOCC2)c2sc(-c3nc(-c4ccsc4)c[nH]3)nc12` (as salt: ammonium) [Example 19, 4-Methoxy-7-morpholin-4-yl-2-(4-thiophen-3-yl-1H-imidazol-2-yl)-benzothiazole] yielded a melting point of 170 °C.

In turn, `COc1ccc(N2CCOCC2)c2sc(-c3nc(-c4cccs4)c[nH]3)nc12` (as salt: ammonium) [Example 18, 4-Methoxy-7-morpholin-4-yl-2-(4-thiophen-2-yl-1H-imidazol-2-yl)-benzothiazole] had a melting point of 165 °C.

Take `COc1ccc(N2CCOCC2)c2sc(-c3nc4c([nH]3)CCCC4)nc12` [Example 22, 4-Methoxy-7-morpholin-4-yl-2-(4,5,6,7-tetrahydro-1H-benzoimidazol-2-yl)-benzothiazole]: the Ki in data set [1] was 2.51 nM; in data set [2], 794 nM.

Take `COc1ccc(N2CCOCC2)c2sc(-c3nc4c([nH]3)CCN(C(=O)C3CC3)CC4)nc12` [Example 30, Cyclopropyl-[2-(4-methoxy-7-morpholin-4-yl-benzothiazol-2-yl)-4,5,7,8-tetrahydro-1H-imidazo[4,5-d]azepin-6-yl]-methanone]: the Ki in data set [1] was 1.58 nM; in data set [2], 1260 nM.

Consider `COc1ccc(N2CCOCC2)c2sc(-c3ncc(-c4csc5ccccc45)[nH]3)nc12` [Example 17, 2-(5-Benzo[b]thiophen-3-yl-1H-imidazol-2-yl)-4-methoxy-7-morpholin-4-yl-benzothiazole], for which the melting point is 161 to 162 °C.

As for `COc1ccc(N2CCOCC2)c2sc(-c3nc4ccc(N5CCOCC5)nc4[nH]3)nc12` [Example 9, 2-(4-Methoxy-7-morpholin-4-yl-benzothiazol-2-yl)-5-morpholin-4-yl-3H-imidazo[4,5-b]pyridine], the Ki in data set [1] was 2.51 nM.

`COc1ccc(N2CCOCC2)c2sc(-c3nc4c([nH]3)CCN(C(C)=O)CC4)nc12` [Example 27, 1-[2-(4-Methoxy-7-morpholin-4-yl-benzothiazol-2-yl)-4,5,7,8-tetrahydro-1H-imidazo[4,5-d]azepin-6-yl]-ethanone] registered a melting point of 195 to 197 °C.

`COCn1c(-c2nc3c(OC)ccc(N4CCOCC4)c3s2)nc2ccc(Cl)nc21` [Example 7, 5-Chloro-3-methoxymethyl-2-(4-methoxy-7-morpholin-4-yl-benzothiazol-2-yl)-3H-imidazo[4,5-b]pyridine] yielded a melting point of 167 to 170 °C.

On to `COc1ccc(N2CCOCC2)c2sc(-c3nc4ccc(N(C)CC5CCOCC5)nc4[nH]3)nc12` [Example 14, [2-(4-Methoxy-7-morpholin-4-yl-benzothiazol-2-yl)-3H-imidazo[4,5-b]pyridin-5-yl]-methyl-(tetrahydro-pyran-4-ylmethyl)-amine], for which the Ki in data set [1] was 3.16 nM; in data set [2] it was 2510 nM.

Regarding `COc1ccc(C2CCOCC2)c2sc(-c3ncc[nH]3)nc12` [Example 45, 2-(1H-Imidazol-2-yl)-4-methoxy-7-(tetrahydro-pyran-4-yl)-benzothiazole], the melting point is 220 to 224 °C.

`COc1ccc(N2CCOCC2)c2sc(-c3nc4c([nH]3)CCNC4)nc12.Cl` returned a melting point of 268 to 271 °C.

Consider `COc1ccc(N2CCOCC2)c2sc(-c3ncc(-c4sc5ccccc5c4C)[nH]3)nc12` [Example 20, 4-Methoxy-2-[5-(3-methyl-benzo[b]thiophen-2-yl)-1H-imidazol-2-yl]-7-morpholin-4-yl-benzothiazole], for which the melting point was in the range of 213 to 215 °C. Moreover, the Ki in data set [1] was 50.1 nM.

Turning to `COc1ccc(N2CCOCC2)c2sc(-c3nc4ccc(Cl)nc4[nH]3)nc12` [Example 6, 5-Chloro-2-(4-methoxy-7-morpholin-4-yl-benzothiazol-2-yl)-3H-imidazo[4,5-b]pyridine], the Ki in data set [1] was 3.16 nM.

For the molecule `COc1ccc(N2CCOCC2)c2sc(-c3nc(Cc4cccs4)c[nH]3)nc12` (as salt: ammonium) [Example 21, 4-Methoxy-7-morpholin-4-yl-2-(4-thiophen-2-ylmethyl-1H-imidazol-2-yl)-benzothiazole], the melting point is 165 °C.

With `COc1ccc(N2CCOCC2)c2sc(-c3ncc[nH]3)nc12` [Example 1, 2-(1H-Imidazol-2-yl)-4-methoxy-7-morpholin-4-yl-benzothiazole], the values for the Ki in data set [1] and in data set [2] were 12.6 nM and 1000 nM, respectively.

As for `COc1ccc(N2CCOCC2)c2sc(-c3nc(-c4ccccc4)c[nH]3)nc12` [Example 15, 4-Methoxy-7-morpholin-4-yl-2-(4-phenyl-1H-imidazol-2-yl)-benzothiazole], the melting point is 226 to 233 °C.

Turning to `COc1ccc(N2CCOCC2)c2sc(-c3nc4c([nH]3)CCCC4)nc12` (as salt: ammonium) [Example 22, 4-Methoxy-7-morpholin-4-yl-2-(4,5,6,7-tetrahydro-1H-benzoimidazol-2-yl)-benzothiazole], the melting point came to 165 °C.

As for `COc1ccc(N2CCOCC2)c2sc(-c3nc(-c4ccc5c(c4)OCCO5)c[nH]3)nc12` [Example 16, 2-[4-(2,3-Dihydro-benzo[1,4]dioxin-6-yl)-1H-imidazol-2-yl]-4-methoxy-7-morpholin-4-yl-benzothiazole], the melting point fell in the range of 235 to 237 °C.

On to `COc1ccc(N2CCOCC2)c2sc(-c3nc4ccccc4n3C)nc12` [Example 3, 4-Methoxy-2-(1-methyl-1H-benzoimidazol-2-yl)-7-morpholin-4-yl-benzothiazole], for which the melting point was in the range of 283 to 285 °C. In addition, the Ki in data set [1] is 100 nM.

In turn, `COc1ccc(N2CCOCC2)c2sc(-c3nc4c([nH]3)CCNCC4)nc12.Cl` registered a melting point of 267 to 269 °C.

In general, melting point refers to the temperature of the solid-liquid transition.
